Laboratory results from patent publication US20220089575A1, “FARNESOID X RECEPTOR AGONISTS AND USES THEREOF” (Metacrine, Inc., priority 2017, published 2022).

Each compound was assayed against T1, hFXR (Homo sapiens, UniProt Q96RI1) (assay: In Vitro FXR Assay (TK): TK-ECRE-luc reporter in transfected CV-1 cells). Conditions: 18 hrs, luminescence, maximum efficacy of <25% of the Fexarmine control classified as '+'.
T1 construct: expressed in transfected cells; host or cells: CV-1 cells
T1 sequence (Q96RI1 1-486): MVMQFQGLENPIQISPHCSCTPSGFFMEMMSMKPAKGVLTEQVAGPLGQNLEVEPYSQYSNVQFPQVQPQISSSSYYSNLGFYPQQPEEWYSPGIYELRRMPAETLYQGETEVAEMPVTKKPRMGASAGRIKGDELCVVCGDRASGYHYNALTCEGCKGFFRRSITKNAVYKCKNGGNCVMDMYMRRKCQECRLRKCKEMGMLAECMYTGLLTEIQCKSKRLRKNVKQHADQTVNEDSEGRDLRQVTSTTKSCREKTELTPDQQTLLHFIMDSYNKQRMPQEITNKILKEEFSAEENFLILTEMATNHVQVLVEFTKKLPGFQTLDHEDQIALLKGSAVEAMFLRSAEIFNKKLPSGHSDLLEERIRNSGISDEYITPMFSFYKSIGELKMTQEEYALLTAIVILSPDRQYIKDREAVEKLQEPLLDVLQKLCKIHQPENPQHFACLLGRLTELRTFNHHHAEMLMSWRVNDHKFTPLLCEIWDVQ
T1 sequence (P19793 1-462 partner): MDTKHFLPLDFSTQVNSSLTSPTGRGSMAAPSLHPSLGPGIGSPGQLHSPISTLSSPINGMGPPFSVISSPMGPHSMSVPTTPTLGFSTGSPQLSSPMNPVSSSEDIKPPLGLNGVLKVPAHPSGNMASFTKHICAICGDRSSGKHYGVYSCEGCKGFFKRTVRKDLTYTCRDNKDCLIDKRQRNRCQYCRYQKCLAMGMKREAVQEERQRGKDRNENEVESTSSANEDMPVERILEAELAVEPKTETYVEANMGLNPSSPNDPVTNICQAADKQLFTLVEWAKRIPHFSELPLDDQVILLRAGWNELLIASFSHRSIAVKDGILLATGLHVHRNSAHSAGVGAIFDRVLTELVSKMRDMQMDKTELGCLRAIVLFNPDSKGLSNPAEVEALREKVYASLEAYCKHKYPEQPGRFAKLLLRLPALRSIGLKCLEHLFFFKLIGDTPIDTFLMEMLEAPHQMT
Assay type: cell-based
Outline: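 CV-1, transient co-transfection: hFXR + hRXR + TK-ECRE-luc + pCMX-YFP; charcoal-stripped serum. 18 h post-transfection, DMSO serial dilutions of cpd added; 18 h incubation; lysis, luminescence.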

EC50 [nM]	Structure (SMILES)
≤ 250	COc1ccc([C@H]2CC[C@H](CN(c3cccc(-c4cnn(C(C)C)c4)c3)C(=O)[C@H]3CC[C@H](NC(=O)COC(C)=O)CC3)CC2)cc1C [Compound 26.11, 2-((trans-4-((3-(1-Isopropyl-1H-pyrazol-4-yl)phenyl)((trans-4-(4-methoxy-3-methylphenyl)cyclohexyl)methyl)carbamoyl)cyclohexyl)amino)-2-oxoethyl acetate]
≤ 250	COc1ccc([C@H]2CC[C@H](CN(c3cc(-c4cnn(C(C)C)c4)ccn3)C(=O)[C@H]3CC[C@H](OC(=O)N(C)C)CC3)CC2)cc1C#N [Compound 7.45, trans-4-(((trans-4-(3-Cyano-4-methoxyphenyl)cyclohexyl)methyl)(4-(1-isopropyl-1H-pyrazol-4-yl)pyridin-2-yl)carbamoyl)cyclohexyl dimethylcarbamate]
≤ 250	CCc1nc(-c2ccnc(N(C[C@H]3CC[C@H](c4ccc(OC)c(C)n4)CC3)C(=O)[C@H]3CC[C@H](OC(=O)NCCO)CC3)c2)co1 [Compound 6.85, trans-4-((4-(2-Ethyloxazol-4-yl)pyridin-2-yl)((trans-4-(5-methoxy-6-methylpyridin-2-yl)cyclohexyl)methyl)carbamoyl)cyclohexyl (2-hydroxyethyl)carbamate]
≤ 250	CCOC(=O)C[C@H]1CC[C@H](C(=O)N(C[C@H]2CC[C@H](c3ccc(OC)c(C)n3)CC2)c2cc(-c3cnn(C(C)C)c3)ccn2)CC1 [Compound 18.20, Ethyl 2-(trans-4-((4-(1-isopropyl-1H-pyrazol-4-yl)pyridin-2-yl)((trans-4-(5-methoxy-6-methylpyridin-2-yl)cyclohexyl)methyl)carbamoyl)cyclohexyl)acetate]
≤ 250	COc1ccc([C@H]2CC[C@H](CN(c3cccc(-c4cnn(C5CC5)c4)c3)C(=O)[C@H]3CC[C@H](C(=O)OC(C)C)CC3)CC2)cc1C [Compound 22.01, trans-Isopropyl 4-((3-(1-cyclopropyl-1H-pyrazol-4-yl)phenyl)((trans-4-(4-methoxy-3-methylphenyl)cyclohexyl)methyl)carbamoyl) cyclohexanecarboxylate]
≤ 250	COc1ccc([C@H]2CC[C@H](CN(c3cccc(-c4cnn(C5CC5)c4)c3)C(=O)[C@H]3CC[C@H](CO)CC3)CC2)cc1C [Compound 15, trans-N-(3-(1-Cyclopropyl-1H-pyrazol-4-yl)phenyl)-4-(hydroxymethyl)-N-((trans-4-(4-methoxy-3-methylphenyl)cyclohexyl)methyl) cyclohexanecarboxamide]
≤ 250	COc1ccc([C@H]2CC[C@H](CN(c3cccc(-c4cnc(C5CC5)s4)c3)C(=O)[C@H]3CC[C@H](NC(=O)COC(C)=O)CC3)CC2)cc1C [Compound 25.13, 2-((trans-4-((3-(2-Cyclopropylthiazol-5-yl)phenyl)((trans-4-(4-methoxy-3-methylphenyl)cyclohexyl)methyl)carbamoyl)cyclohexyl)amino)-2-oxoethyl acetate]
≤ 250	CNC(=O)O[C@H]1CC[C@H](C(=O)N(C[C@H]2CC[C@H](c3ccc(OC)c(C)c3)CC2)c2cc(-c3cnn(C4CC4)c3)ccn2)CC1 [Compound 3.04, trans-4-((4-(1-Cyclopropyl-1H-pyrazol-4-yl)pyridin-2-yl)((trans-4-(4-methoxy-3-methylphenyl)cyclohexyl)methyl)carbamoyl)cyclohexyl methylcarbamate]
≤ 250	COc1ccc([C@H]2CC[C@H](CN(c3cc(-c4coc(C5CC5)n4)ccn3)C(=O)[C@H]3CC[C@H](OC(=O)NC4CC4)CC3)CC2)nc1C [Compound 6.57, trans-4-((4-(2-Cyclopropyloxazol-4-yl)pyridine-2-yl)((trans-4-(5-methoxy-6-methylpyridin-2-yl)cyclohexyl)methyl)carbamoyl)cyclohexyl cyclopropylcarbamate]
≤ 250	COc1ccc([C@H]2CC[C@H](CN(c3cccc(-c4cnn(C5CC5)c4)c3)C(=O)[C@H]3CC[C@H](OC(=O)NCCN(C)C(=O)OC(C)(C)C)CC3)CC2)cc1C [Compound 4.14, tert-Butyl (2-((((trans-4-((3-(1-cyclopropyl-1H-pyrazol-4-yl)phenyl)((trans-4-(4-methoxy-3-methylphenyl)cyclohexyl)methyl)carbamoyl)cyclohexyl)oxy)carbonyl)amino)ethyl)(methyl)carbamate]
≤ 250	COc1ccc([C@H]2CC[C@H](CN(c3cc(-c4coc(C5CC5)n4)ccn3)C(=O)[C@H]3CC[C@H](OC(=O)N4CC(CN(C)C)C4)CC3)CC2)nc1C [Compound 7.106, trans-4-((4-(2-Cyclopropyloxazol-4-yl)pyridin-2-yl)((trans-4-(5-methoxy-6-methylpyridin-2-yl)cyclohexyl)methyl)carbamoyl)cyclohexyl 3-((dimethylamino)methyl)azetidine-1-carboxylate]
≤ 250	CNC(=O)N[C@H]1CC[C@H](C(=O)N(C[C@H]2CC[C@H](c3ccc(OC)c(C)c3)CC2)c2cccc(-c3cnc(C4CC4)s3)c2)CC1 [Compound 26.36, trans-N-(3-(2-Cyclopropylthiazol-5-yl)phenyl)-N-((trans-4-(4-methoxy-3-methylphenyl)cyclohexyl)methyl)-4-(3-methylureido)cyclohexanecarboxamide]
≤ 250	COc1ccc(C23CCC(CN(c4cccc(-c5cnn(C6CC6)c5)c4)C(=O)[C@H]4CC[C@H](NC(=O)OC(C)(C)C)CC4)(CC2)CC3)cc1C [Compound 18.15, tert-Butyl (4-((3-(1-cyclopropyl-1H-pyrazol-4-yl)phenyl)((4-(4-methoxy-3-methylphenyl)bicyclo[2.2.2]octan-1-yl)methyl)carbamoyl)cyclohexyl) trans-carbamate]
≤ 250	COc1ccc([C@H]2CC[C@H](CN(c3cc(-c4coc(C5CC5)n4)ccn3)C(=O)[C@H]3CC[C@H](OC(=O)N(C)CC(C)(C)O)CC3)CC2)nc1C [Compound 6.86, trans-4-((4-(2-Cyclopropyloxazol-4-yl)pyridin-2-yl)((trans-4-(5-methoxy-6-methylpyridin-2-yl)cyclohexyl)methyl)carbamoyl)cyclohexyl (2-hydroxy-2-methylpropyl)(methyl)carbamate]
≤ 250	CCOC(=O)C[C@H]1CC[C@H](C(=O)N(C[C@H]2CC[C@H](c3ccc(OC)c(C)n3)CC2)c2cccc(-c3cnn(C4CC4)c3)c2)CC1 [Compound 14, Ethyl 2-(trans-4-((3-(1-cyclopropyl-1H-pyrazol-4-yl)phenyl)((trans-4-(5-methoxy-6-methylpyridin-2-yl)cyclohexyl)methyl)carbamoyl)cyclohexyl)acetate]
≤ 250	COc1ccc([C@H]2CC[C@H](CN(c3cccc(-c4cnn(C5CC5)c4)c3)C(=O)[C@H]3CC[C@H](OC(=O)N4CC(CSC)C4)CC3)CC2)cc1C [Compound 4.28, trans-4-((3-(1-Cyclopropyl-1H-pyrazol-4-yl)phenyl)((trans-4-(4-methoxy-3-methylphenyl)cyclohexyl)methyl)carbamoyl)cyclohexyl 3-((methylthio)methyl)azetidine-1-carboxylate]
≤ 250	CNC(=O)N[C@H]1CC[C@H](C(=O)N(C[C@H]2CC[C@H](c3ccc(OC)c(C)c3)CC2)c2cccc(-c3cnn(C4CC4)c3)c2)CC1 [Compound 26.37, trans-N-(3-(1-Cyclopropyl-1H-pyrazol-4-yl)phenyl)-N-((trans-4-(4-methoxy-3-methylphenyl)cyclohexyl)methyl)-4-(3-methylureido)cyclohexanecarboxamide]
≤ 250	COc1ccc([C@H]2CC[C@H](CN(c3cccc(-c4cnc(C5CC5)s4)c3)C(=O)[C@H]3CC[C@H](NC(=O)CO)CC3)CC2)cc1C [Compound 25.14, trans-N-(3-(2-Cyclopropylthiazol-5-yl)phenyl)-4-(2-hydroxyacetamido)-N-((trans-4-(4-methoxy-3-methylphenyl)cyclohexyl)methyl) cyclohexanecarboxamide]
≤ 250	COC(=O)O[C@H]1CC[C@H](C(=O)N(C[C@H]2CC[C@H](c3ccc(OC)c(C)c3)CC2)c2cccc(-c3cnn(C4CC4)c3)c2)CC1 [Compound 1.07, trans-4-((3-(1-Cyclopropyl-1H-pyrazol-4-yl)phenyl)((trans-4-(4-methoxy-3-methylphenyl)cyclohexyl)methyl)carbamoyl)cyclohexyl methyl carbonate]

Structure (SMILES)	EC50 [nM]
COc1ccc([C@H]2CC[C@H](CN(c3cccc(-c4cnn(C5CC5)c4)c3)C(=O)[C@H]3CC[C@H](OC(=O)N4CC(N(C)C(=O)OC(C)(C)C)C4)CC3)CC2)cc1C [Compound 7.36, trans-4-((3-(1-Cyclopropyl-1H-pyrazol-4-yl)phenyl)((trans-4-(4-methoxy-3-methylphenyl)cyclohexyl)methyl)carbamoyl)cyclohexyl 3-((tert-butoxycarbonyl)(methyl)amino) azetidine-1-carboxylate]	≤ 250
